According to paper PMC6980389 (Chembiochem : a European journal of chemical biology, 2018):
Where two headings read alike, the source gives them in different places.

What was measured:
U937 leukemia cells [1] = conditions: proliferation and attachment assays; ref 12b-e; cited from earlier work
Toledo cells = assay: Growth of Toledo cells; assay type: cell-based; conditions: 72 h; for IC50: read-out: IC50, growth inhibition of Toledo cells
U937 leukemia cells [2] = assay: U937 cell attachment at 60 h, alone or with 10 nM PMA; assay type: cell-based; conditions: ligand alone
PKCδ = PKCδ (Homo sapiens, UniProt Q05655); assay: Downregulation of PKCδ in U937 cells; assay type: cell-based; conditions: 24 h
PKCδ, sequence (Q05655 whole entry): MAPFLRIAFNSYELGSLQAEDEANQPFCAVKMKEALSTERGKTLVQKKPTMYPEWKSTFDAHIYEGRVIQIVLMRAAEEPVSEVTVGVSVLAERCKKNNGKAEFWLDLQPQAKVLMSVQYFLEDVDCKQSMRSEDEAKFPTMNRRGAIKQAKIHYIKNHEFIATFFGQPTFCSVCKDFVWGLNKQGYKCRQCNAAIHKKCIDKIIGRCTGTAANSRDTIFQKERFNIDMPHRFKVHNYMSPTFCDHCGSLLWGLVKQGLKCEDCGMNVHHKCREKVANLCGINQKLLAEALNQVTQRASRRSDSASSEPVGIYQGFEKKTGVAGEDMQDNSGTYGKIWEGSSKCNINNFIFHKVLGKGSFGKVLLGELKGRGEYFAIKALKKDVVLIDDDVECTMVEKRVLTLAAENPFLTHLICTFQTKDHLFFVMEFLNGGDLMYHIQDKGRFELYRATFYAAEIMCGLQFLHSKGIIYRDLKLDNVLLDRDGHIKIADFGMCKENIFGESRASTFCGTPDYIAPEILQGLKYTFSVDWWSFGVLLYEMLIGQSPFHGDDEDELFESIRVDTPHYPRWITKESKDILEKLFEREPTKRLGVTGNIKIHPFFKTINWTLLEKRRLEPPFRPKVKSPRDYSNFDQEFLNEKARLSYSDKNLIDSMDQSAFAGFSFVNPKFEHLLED

PKCβII = PKCβII (Homo sapiens, UniProt P05771); assay: Downregulation of PKCβII in U937 cells; assay type: cell-based; conditions: 24 h
PKCβII, sequence (P05771 1-673 isoform P05771-2): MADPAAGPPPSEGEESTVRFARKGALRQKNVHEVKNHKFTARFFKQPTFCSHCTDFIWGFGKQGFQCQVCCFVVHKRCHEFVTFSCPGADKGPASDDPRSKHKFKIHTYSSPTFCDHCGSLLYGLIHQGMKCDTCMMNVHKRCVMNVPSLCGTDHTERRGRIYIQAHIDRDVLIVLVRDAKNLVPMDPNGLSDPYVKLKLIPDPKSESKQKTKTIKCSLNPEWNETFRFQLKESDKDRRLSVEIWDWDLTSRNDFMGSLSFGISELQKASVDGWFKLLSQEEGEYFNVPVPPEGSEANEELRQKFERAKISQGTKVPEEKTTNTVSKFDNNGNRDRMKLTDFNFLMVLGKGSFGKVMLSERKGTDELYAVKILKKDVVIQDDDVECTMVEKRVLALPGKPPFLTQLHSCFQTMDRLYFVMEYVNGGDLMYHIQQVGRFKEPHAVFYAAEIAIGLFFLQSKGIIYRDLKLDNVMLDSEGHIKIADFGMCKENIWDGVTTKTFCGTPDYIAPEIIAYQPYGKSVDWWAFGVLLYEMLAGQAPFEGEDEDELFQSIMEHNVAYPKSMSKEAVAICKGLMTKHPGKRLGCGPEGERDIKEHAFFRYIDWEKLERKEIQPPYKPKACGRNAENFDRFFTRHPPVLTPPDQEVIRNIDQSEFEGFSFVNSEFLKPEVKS

mCherry PKCδ = mCherry PKCδ (Homo sapiens, UniProt Q05655); assay: Translocation of mCherry-tagged PKCδ in LNCaP cells; assay type: cell-based; conditions: 1 μM ligand
mCherry PKCδ, sequence (Q05655 whole entry): as the sequence (Q05655 whole entry) above

Which results are given for `C=C1C[C@@H]2C[C@@H]3CC(=C)C[C@H](/C=C/C(C)(C)[C@]4(O)O[C@@H](C/C(=C\C(=O)OC)[C@@H]4OC(=O)/C=C/C=C/CCC)C[C@H]([C@@H](C)O)OC(=O)C[C@H](O)C[C@H](C1)O2)O3` [Merle 23]?
Pattern of biological activity in U937 cells (PMA-like or bryostatin-like) (U937 leukemia cells [1]): largely PMA-like; IC50 (Toledo cells): 0.33 ± 0.11 nM; Effect on attachment of U937 cells (U937 leukemia cells [2]): induced attachment; Downregulation of PKCδ (PKCδ): less potent than Merle 45 for downregulation but again showed no protection of PKCδ downregulation at high doses

Which “Pattern of biological activity in U937 cells (PMA-like or bryostatin-like)” value (U937 leukemia cells [1]) does the source give for `C=C1C[C@H]2C[C@H]3C[C@@H](OC(C)=O)C[C@@H](C[C@@H](O)CC(=O)O[C@@H]([C@@H](C)O)C[C@@H]4C/C(=C\C(=O)OC)[C@H](OC(=O)CCCCCCC)[C@@](O)(O4)C(C)(C)/C=C/[C@@H](C1)O2)O3` [Merle 27] here?
The value was “PMA-like”.

Which results are given for `C=C1C[C@H]2CC3(O)O[C@H](C[C@@H](O)CC(=O)O[C@@H]([C@@H](C)O)C[C@@H]4C/C(=C\C(=O)OC)[C@H](OC(=O)/C=C/C=C/CCC)[C@@](O)(O4)C(C)(C)/C=C/[C@@H](C1)O2)C[C@H](OC(C)=O)C3(C)C` [Merle 28]?
Pattern of biological activity in U937 cells (PMA-like or bryostatin-like) (U937 leukemia cells [1]): bryostatin-like; IC50 (Toledo cells): 0.111 ± 0.009 nM; Effect on attachment of U937 cells (U937 leukemia cells [2]): did not inhibit proliferation (Figure 1) or induce attachment

Which results are given for `CCCCCCCCCCCCCC(=O)O[C@@H]1[C@@H](C)[C@@]2(O)[C@@H](C=C(CO)C[C@]3(O)C(=O)C(C)=C[C@@H]23)[C@@H]2C(C)(C)[C@]12OC(C)=O` [PMA, phorbol 12-myristate 13-acetate]?
Downregulation of PKCβII (PKCβII): downregulated PKCβII at 24 h; Effect on Toledo cell growth (Toledo cells): inhibited Toledo cell growth; IC50 (Toledo cells; Homo sapiens, Toledo): 0.57 ± 0.27 nM; Translocation of PKCδ (mCherry PKCδ): characteristic translocation of PKCδ to the plasma and nuclear membranes, as well as to internal membranes; Effect on attachment of U937 cells (U937 leukemia cells [2]): induced attachment

For `CCC/C=C/C=C/C(=O)O[C@H]1/C(=C/C(=O)OC)C[C@H]2C[C@H]([C@@H](C)O)OC(=O)C[C@H](O)C[C@@H]3C[C@H](OC(C)=O)C(C)(C)[C@](O)(C[C@@H]4C/C(=C/C(=O)OC)C[C@H](/C=C/C(C)(C)[C@]1(O)O2)O4)O3` [bryostatin 1], which “Effect on Toledo cell growth” value (Toledo cells) is on record?
Its value is “inhibited Toledo cell growth”.

And the IC50 (Toledo cells; Homo sapiens, Toledo)?
Its IC50 is 0.091 ± 0.026 nM.

And the “Effect on attachment of U937 cells” value (U937 leukemia cells [2])?
The value was “did not inhibit proliferation (Figure 1) or induce attachment”.
